Measurements taken from ChEMBL document CHEMBL3046196, “Dimeric 2-(2-chlorophenyl)-quinazolin-4-ones as potential antimicrobial agents” (2012).
Values after ≈ are worked out from the molar mass of the structure shown.

How the values were obtained:
Format in all cases: functional
[1] = tested on: Aspergillus clavatus; assay: Antimicrobial activity against Aspergillus clavatus MTCC 1323
[2] = tested on: Aspergillus niger; assay: Antimicrobial activity against Aspergillus niger MTCC 282
[3] = tested on: Candida albicans; assay: Antimicrobial activity against Candida albicans MTCC 227
[4] = tested on: Streptococcus pyogenes; assay: Antimicrobial activity against Streptococcus pyogenes MTCC 442 after 24 and 48 hr by serial broth dilution method
[5] = tested on: Staphylococcus aureus; assay: Antimicrobial activity against Staphylococcus aureus MTCC 96 after 24 and 48 hr by serial broth dilution method
[6] = tested on: Pseudomonas aeruginosa; assay: Antimicrobial activity against Pseudomonas aeruginosa MTCC 1688 after 24 and 48 hr by serial broth dilution method
[7] = tested on: Escherichia coli; assay: Antimicrobial activity against Escherichia coli MTCC 443 after 24 and 48 hr by serial broth dilution method

SMILES	MIC99 [1] [µg/mL]	MIC99 [2] [µg/mL]	MIC99 [3] [µg/mL]	MIC99 [4] [µg/mL]	MIC99 [5] [µg/mL]	MIC99 [6] [µg/mL]	MIC99 [7] [µg/mL]
O=c1c2ccccc2nc(-c2ccccc2Cl)n1CCc1ccc2nc(-c3ccccc3Cl)n(-c3c(Cl)cc([N+](=O)[O-])cc3Cl)c(=O)c2c1	100 (≈ 137 µM)	100 (≈ 137 µM)	500 (≈ 685 µM)	50 (≈ 68.5 µM)	100 (≈ 137 µM)	500 (≈ 685 µM)	500 (≈ 685 µM)
Cc1ccc(-n2c(-c3ccccc3Cl)nc3ccc(CCn4c(-c5ccccc5Cl)nc5ccccc5c4=O)cc3c2=O)c(C)c1	500 (≈ 777 µM)	500 (≈ 777 µM)	100 (≈ 155 µM)	50 (≈ 77.7 µM)	50 (≈ 77.7 µM)	100 (≈ 155 µM)	50 (≈ 77.7 µM)
COc1ccc(-n2c(-c3ccccc3Cl)nc3ccc(CCn4c(-c5ccccc5Cl)nc5ccccc5c4=O)cc3c2=O)c([N+](=O)[O-])c1	500 (≈ 724 µM)	500 (≈ 724 µM)	100 (≈ 145 µM)	100 (≈ 145 µM)	100 (≈ 145 µM)	500 (≈ 724 µM)	100 (≈ 145 µM)
O=c1c2ccccc2nc(-c2ccccc2Cl)n1CCc1ccc2nc(-c3ccccc3Cl)n(-c3cccc([N+](=O)[O-])c3)c(=O)c2c1	100 (≈ 151 µM)	1000 (≈ 1510 µM)	1000 (≈ 1510 µM)	50 (≈ 75.7 µM)	50 (≈ 75.7 µM)	100 (≈ 151 µM)	50 (≈ 75.7 µM)
O=c1c2ccccc2nc(-c2ccccc2Cl)n1CCc1ccc2nc(-c3ccccc3Cl)n(-c3ccccc3[N+](=O)[O-])c(=O)c2c1	1000 (≈ 1510 µM)	100 (≈ 151 µM)	100 (≈ 151 µM)	12.5 (≈ 18.9 µM)	200 (≈ 303 µM)	200 (≈ 303 µM)	100 (≈ 151 µM)
O=c1c2ccccc2nc(-c2ccccc2Cl)n1CCc1ccc2nc(-c3ccccc3Cl)n(-c3ccc(Br)cc3)c(=O)c2c1	1000 (≈ 1440 µM)	500 (≈ 720 µM)	1000 (≈ 1440 µM)	500 (≈ 720 µM)	500 (≈ 720 µM)	200 (≈ 288 µM)	200 (≈ 288 µM)
Cc1ccc(-n2c(-c3ccccc3Cl)nc3ccc(CCn4c(-c5ccccc5Cl)nc5ccccc5c4=O)cc3c2=O)c([N+](=O)[O-])c1	100 (≈ 148 µM)	1000 (≈ 1480 µM)	500 (≈ 741 µM)	25 (≈ 37.1 µM)	100 (≈ 148 µM)	500 (≈ 741 µM)	200 (≈ 296 µM)
Cc1ccc(C)c(-n2c(-c3ccccc3Cl)nc3ccc(CCn4c(-c5ccccc5Cl)nc5ccccc5c4=O)cc3c2=O)c1	500 (≈ 777 µM)	500 (≈ 777 µM)	200 (≈ 311 µM)	25 (≈ 38.8 µM)	100 (≈ 155 µM)	200 (≈ 311 µM)	100 (≈ 155 µM)
CC1(C)S[C@@H]2[C@H](NC(=O)[C@H](N)c3ccccc3)C(=O)N2[C@H]1C(=O)O [AMPICILLIN]				100 (≈ 286 µM)	250 (≈ 715 µM)	100 (≈ 286 µM)	100 (≈ 286 µM)
O=c1c2ccccc2nc(-c2ccccc2Cl)n1CCc1ccc2nc(-c3ccccc3Cl)n(-c3ccc(Cl)c(Cl)c3)c(=O)c2c1	100 (≈ 146 µM)	500 (≈ 731 µM)	100 (≈ 146 µM)	50 (≈ 73.1 µM)	50 (≈ 73.1 µM)	100 (≈ 146 µM)	200 (≈ 292 µM)
COC1=CC(=O)C[C@@H](C)[C@]12Oc1c(Cl)c(OC)cc(OC)c1C2=O [GRISEOFULVIN]	100 (≈ 283 µM)	100 (≈ 283 µM)	500 (≈ 1420 µM)				
O=c1c2ccccc2nc(-c2ccccc2Cl)n1CCc1ccc2nc(-c3ccccc3Cl)n(-c3ccccc3Cl)c(=O)c2c1	100 (≈ 154 µM)	100 (≈ 154 µM)	500 (≈ 769 µM)	50 (≈ 76.9 µM)	200 (≈ 308 µM)	500 (≈ 769 µM)	500 (≈ 769 µM)
O=c1c2ccccc2nc(-c2ccccc2Cl)n1CCc1ccc2nc(-c3ccccc3Cl)n(-c3ccc([N+](=O)[O-])cc3)c(=O)c2c1	500 (≈ 757 µM)	500 (≈ 757 µM)	500 (≈ 757 µM)	100 (≈ 151 µM)	200 (≈ 303 µM)	500 (≈ 757 µM)	100 (≈ 151 µM)
Cc1cccc(-n2c(-c3ccccc3Cl)nc3ccc(CCn4c(-c5ccccc5Cl)nc5ccccc5c4=O)cc3c2=O)c1C	500 (≈ 777 µM)	500 (≈ 777 µM)	500 (≈ 777 µM)	100 (≈ 155 µM)	500 (≈ 777 µM)	100 (≈ 155 µM)	50 (≈ 77.7 µM)
